How the values were obtained:
[1] = system: GFP-HEK cells; assay: Cas9 mRNA and sgRNA delivery, GFP knockout (GFP− cells); format: cell-based; details: Cas9 mRNA and sgRNA 1/1; lipidoid/mRNA=10/1; [mRNA]=0.86 μg mL^−1; 48 h
Procedure: (§1) Next, the possibility of using OCholB LNPs to deliver mRNA for genome editing (Cre-loxP and CRISPR/Cas9 systems) purposes was examined. First, Cre mRNA was complexed with OCholB LNPs and tested against HeLa-DsRed cells. The HeLa-DsRed cells express red fluorescent protein, DsRed, only upon Cre protein-mediated recombination. After 24 h of incubation with mRNA/LNPs (lipidoid/mRNA=10/1; [mRNA]=0.86 μg mL^−1), the DsRed^+ cell portions were determined by flow cytometry. […] Then the Cas9 mRNA that expresses a version of Streptococcus pyogenes SF370 Cas9 protein with an N and C terminal nuclear localization signal (NLS) were loaded into LNPs, along with single-guide RNA (sgRNA) that targets a sequence on GFP gene. GFP-HEK cells which steadily express GFP proteins were used a cell model in this case. GFP-cells, indicating a successful Cas9-mediated knockdown of GFP expression, were analyzed using flow cytometry. […] This was also found to be applicable to protein delivery in our previous studies.
(§2) In this context, two strategies were tested, i.e., synthesizing new OCholB-tailed lipidoids with single tail rather than full substitution, and adding helper lipids (phospholipids) into fully substituted OCholB LNPs. Single-tailed lipidoids, 75-OCholB-1, 76-OCholB-1 and […] at first following similar protocols as described before and characterized by ESI-MS ([75-OCholB-1+H]^+, 736.55; [76-OCholB-1+H]^+, 734.64; [77-OCholB-1+H]^+, 748.73). Nanoparticles were than fabricated using the same sonication/vortex procedures and the obtained LNPs were measured by DLS (75-OCholB-1, <Dh>=302.6 nm, μ2/I^2=0.30; 76-OCholB-1, <Dh>=294.5 nm, μ2/I^2=0.30; 77-OCholB-1, <Dh>=254.2 nm, μ2/I^2=0.33). […] 69.4%, 72.5% and 68.9% of GFP^+ cells were determined for mRNA/75-OCholB-1, mRNA/76-OCholB-1 and mRNA/77-OCholB-1 treated HeLa cells, respectively. Cre mRNA could also be efficiently delivered into HeLa-DsRed cells, as 87.3% (mRNA/75-OCholB-1), 82.8% (mRNA/76-OCholB-1) and 81.5% (mRNA/77-OCholB-1) of cells were determined to be DsRed^+ after 24 h of exposure (FIG. 14G). […]

[2] = system: HeLa-DsRed cells; assay: Cre mRNA delivery (DsRed+ cells); format: cell-based; details: lipidoid/mRNA=10/1, [mRNA]=0.86 μg mL^−1, 24 h
Procedure: as §1, §2

SMILES	GFP^− cells [1] [%]	DsRed^+ cells [2] [%]
CC(C)CCCC(C)C1CCC2C3CC=C4CC(OC(=O)NCCSSCCOC(=O)CCN(CCC(=O)OCCSSCCNC(=O)OC5CCC6(C)C(=CCC7C6CCC6(C)C(C(C)CCCC(C)C)CCC76)C5)CCN5CCCC5)CCC4(C)C3CCC12C (stereo not drawn) [Lipidoid 76-OCholB]	7.7	48.7
CC(C)CCCC(C)C1CCC2C3CC=C4CC(OC(=O)NCCSSCCOC(=O)CCN(CCC(=O)OCCSSCCNC(=O)OC5CCC6(C)C(=CCC7C6CCC6(C)C(C(C)CCCC(C)C)CCC76)C5)CCC5CCCN5C)CCC4(C)C3CCC12C (stereo not drawn) [Lipidoid 77-OCholB]	4.4	72.8
CCN(CC)CCN(CCC(=O)OCCSSCCNC(=O)OC1CCC2(C)C(=CCC3C2CCC2(C)C(C(C)CCCC(C)C)CCC32)C1)CCC(=O)OCCSSCCNC(=O)OC1CCC2(C)C(=CCC3C2CCC2(C)C(C(C)CCCC(C)C)CCC32)C1 (stereo not drawn) [Lipidoid 75-OCholB]	6.1	67.2

Source: patent US12133855B2, “Lipid-like nanocomplexes and uses thereof” (Trustees of Tufts College, priority 2018, dated 2024)
